In paper doi:10.1101/2025.02.17.638454, “Synergistic RAS-MAPK and AKT Activation in MYC-Driven Tumors via Adjacent PVT1 Rearrangements” (bioRxiv, 2025):
No end group written: not given here.

Legend:
[1] = system: phospho-MEK1/2, phospho-ERK1/2, phospho-p90RSK (RAS/MAPK pathway); assay: Western blot of RAS/MAPK effectors in D458; type: cell-based
Protocol: For whole-cell lysate, the cell pellet was resuspended in RIPA buffer (Cell Signaling Technologies, Danvers, MA) supplemented with a protease inhibitor cocktail (Cell Signaling Technologies) and incubated on ice for 20 minutes. The lysate was then centrifuged at 14,000 revolutions/minute for 10 minutes at 4°C, and the supernatant was harvested. Protein concentration was quantified by BCA Protein Assay Kit (Thermo Fisher Scientific) as per kit protocol. Next, 20 μg of whole-cell lysate was electrophoresed on a 4%–20% gradient polyacrylamide gel with SDS (Bio-Rad, Hercules, CA) and electroblotted onto polyvinylidene difluoride membranes (Bio-Rad). Membranes were blocked in Tris-buffered saline with 5% nonfat milk and 0.1% Tween and probed with antibodies. Bound proteins were detected with horseradish-peroxidase–conjugated secondary antibodies (Cell Signaling Technologies) and SuperSignal West Femto (Thermo Fisher Scientific). […]
The HNB ORF and eGFP (control) were cloned in an inducible lentivirus expression, TRE-gateway plasmid (pLIX_403, Addgene, #41395). […] The protein lysates were collected and quantified using the previously described protocol. […] Bound proteins were detected with horseradish-peroxidase–conjugated secondary antibodies (Cell Signaling Technologies) and SuperSignal West Femto (Thermo Fisher Scientific). […]

HALLMARK_MYC_TARGETS = assay: GSEA MYC targets, SK-PN-DW; type: cell-based, human; settings: si.CircPVT1 vs si.Ctrl, n=3, Padj = 0.010
Description: RNAseq processing: Raw reads were mapped to the hg19 human reference genome using the STAR aligner (v.2.5.0a) 66. PCR-duplicated reads and low mapping quality reads (MQ score below 20) were removed using Picard tools and SAMtools, respectively. Aligned reads were counted using htseq-count (v.0.6.1p1) 69 and normalized according to size factors method from DESeq2 70. We used fold change ≥2 and FDR <0.05 as the determination of differentially expressed genes (DEG). […]
Supplementary Figure 9: Gene set enrichment analysis scores (GSEA) analysis for MYC targets genes in COLODM320 (A,B) and SK-PN-DW (C,D) treated with si.CircPVT 1. si.Ctrl was used as control . n=3, for each treatment condition .
(also on this page, place not known: Enrichment Score Enrichment Score si.CircPVT1. control. condition. Enrichment Score Enrichment Score .CC-BY licenseavailable preprintthis https://doi.org/10.1101/2025.02.17.638454doi:) […]

Substance | phosphorylation of MEK1/2, ERK1/2 and p90RSK ([1]; D458 (wild type KRAS), doxycycline-induced HNB, 1 μg/mL Dox 48 h, n=3, unpaired t-test) | ERK1/2 phosphorylation ([1]; D458, ectopic (doxycycline-inducible) expression, HNB vs mutant, Figure 5L) | NES, HALLMARK_MYC_TARGETS_V1 (HALLMARK_MYC_TARGETS) | NES, HALLMARK_MYC_TARGETS_V2 (HALLMARK_MYC_TARGETS)
MKTQLGAVKGFLHV [HNB] | significantly dampened the phosphorylation | significantly diminished ERK1/2 phosphorylation |  | 
si.CircPVT1: siRNA targeting the junction sequence of CircPVT1, 5’-UGGGCUUGAGGCCUGAUCUUU-3’ (other strand not given here) |  |  | -1.653 | -1.789
